Reference: the CheMixHub viscosity set
Values joined by “and” are separate entries in the source; they are usually repeats but may differ in a detail not shown here. Equal values may be shown once.

Assays:
[1] = xn = mol fraction of the nth substance listed

CC(O)CCO (stereo unspecified)
101 kPa
Details | viscosity
298.15 K | 96.7 mPa·s and 96.8 mPa·s
303.15 K | 69.7 mPa·s and 70.93 mPa·s
308.15 K | 51.8 mPa·s and 53.72 mPa·s
313.15 K | 40 mPa·s and 40.13 mPa·s
318.15 K | 29.9 mPa·s and 31.22 mPa·s

CCCCCCC(C)O (stereo unspecified)
viscosity
Details | 298.15 K | 303.15 K | 308.15 K
101 kPa | 6.49 mPa·s | – | –
101.3 kPa | 5.929 mPa·s and 5.956 mPa·s | 4.794 mPa·s and 4.803 mPa·s | 3.909 mPa·s and 3.907 mPa·s
101.33 kPa | – | 4.804 mPa·s | –

CCCCCCn1cc[n+](C)c1.[Cl][Fe-]([Cl])([Cl])[Cl]
101 kPa
Details | viscosity [mPa·s]
293.15 K | 73.92
298.15 K | 58.96
303.15 K | 47.89
308.15 K | 39.56
313.15 K | 33.07
318.15 K | 28.06
323.15 K | 24.02

CCOC(=O)C(Br)CC (stereo unspecified)
Details | viscosity [mPa·s]
303.15 K, 101 kPa | 1.529

CCn1cc[n+](C)c1C.O=S(=O)([N-]S(=O)(=O)C(F)(F)F)C(F)(F)F
101.3 kPa
Details | viscosity [mPa·s]
293.15 K | 88.09
298.15 K | 69.84
303.15 K | 56.37
308.15 K | 46.1
313.15 K | 38.26
318.15 K | 32.15
323.15 K | 27.31

CCn1cc[n+](CCOC)c1.O=S(=O)([O-])C(F)(F)F
101.33 kPa
Details | viscosity [mPa·s]
293.15 K | 92.53
298.15 K | 72.51
303.15 K | 57.87
308.15 K | 47.34
313.15 K | 39.02
318.15 K | 32.59

CN(C)CCN(C)C
100 kPa
Details | viscosity [mPa·s]
293.15 K | 0.615
303.15 K | 0.557
313.15 K | 0.493
323.15 K | 0.439

COCCn1cc[n+](C)c1.C[C@@H](O)[C@H](N)C(=O)[O-]
100 kPa
Details | viscosity [mPa·s]
298.15 K | 900.5
303.15 K | 625.4
308.15 K | 362.1
313.15 K | 260
318.15 K | 184.4
323.15 K | 136.8

COS(=O)(=O)[O-].Cn1cc[n+](C)c1
viscosity [mPa·s]
Details | 298.15 K | 303.15 K | 308.15 K | 313.15 K
100 kPa | 93.4 | – | – | –
101 kPa | 78 | 61.9 | 49.9 | 40.9

NCCNCCNCCN
101 kPa
Details | viscosity [mPa·s]
303.15 K | 25.41
313.15 K | 15.31
323.15 K | 9.867

O=C(Cl)c1ccccc1
Details | viscosity [mPa·s]
303.15 K, 101 kPa | 1.244

[2H]OCCCCC
Details | viscosity [mPa·s]
306.3 K, 101.33 kPa | 2.685

c1ccncc1
viscosity
Details | 293.15 K | 298 K | 298.15 K | 298.25 K | 303.15 K | 308.15 K | 313.15 K | 318.15 K | 323.15 K
100 kPa | 0.9801 mPa·s | – | 0.9155 mPa·s | – | 0.8568 mPa·s | 0.8032 mPa·s | 0.7546 mPa·s | 0.7103 mPa·s | 0.6698 mPa·s
101 kPa | – | – | – | – | – | 0.76 mPa·s and 0.7914 mPa·s | 0.714 mPa·s (2×) and 0.724 mPa·s | 0.6939 mPa·s | 0.645 mPa·s and 0.6248 mPa·s
101.3 kPa | – | 0.882 mPa·s | 0.903 mPa·s | – | – | 0.75 mPa·s | – | 0.675 mPa·s | –
101.33 kPa | – | – | – | 0.88 mPa·s | 0.828 mPa·s | 0.78 mPa·s | 0.8 mPa·s | 0.66 mPa·s | –

CC(O)CCO (stereo unspecified) + O
viscosity [mPa·s], [1]
Details | 298.15 K | 303.15 K | 308.15 K | 313.15 K | 318.15 K
101 kPa, x1 = 0.0996 | 3.694 | 3.073 | 2.633 | 2.297 | 2.019
101 kPa, x1 = 0.1982 | 8.539 | 6.787 | 5.587 | 4.737 | 4.034
101 kPa, x1 = 0.2991 | 15.27 | 11.94 | 9.627 | 8.017 | 6.671
101 kPa, x1 = 0.4036 | 23.16 | 18.3 | 14.52 | 11.63 | 9.592
101 kPa, x1 = 0.4489 | 28.48 | 23.28 | 17.57 | 13.92 | 11.4
101 kPa, x1 = 0.6118 | 47.9 | 35.02 | 27.68 | 21.38 | 17.22
101 kPa, x1 = 0.6989 | 56.8 | 42.27 | 33.27 | 25.42 | 20.24
101 kPa, x1 = 0.7986 | 67.85 | 51.92 | 38.78 | 29.8 | 23.4
101 kPa, x1 = 0.8971 | 82.56 | 62.2 | 46.95 | 35.92 | 27.87
101.3 kPa, x2 = 0.045 | – | – | – | – | 28.95
101.3 kPa, x2 = 0.2499 | – | – | – | – | 20.85

COCCn1cc[n+](C)c1.C[C@@H](O)[C@H](N)C(=O)[O-] + O
[1], 100 kPa, x2 = 0.6192
Details | viscosity [mPa·s]
298.15 K | 766.5
303.15 K | 499.5

NCCNCCNCCN + O
viscosity [mPa·s], [1]
Details | 303.15 K | 313.15 K | 323.15 K
100 kPa, x1 = 0.006 | – | 0.78 | –
100 kPa, x1 = 0.014 | – | 0.98 | –
100 kPa, x1 = 0.03 | – | 1.69 | –
100 kPa, x1 = 0.076 | – | 6.61 | –
101 kPa, x1 = 0.0299 | 2.243 | 1.716 | 1.359
101 kPa, x1 = 0.0502 | 5.399 | 3.454 | 2.481
101 kPa, x1 = 0.0759 | 11.81 | 7.786 | 5.213
101 kPa, x1 = 0.1097 | 22.1 | 13.05 | 8.624
101 kPa, x1 = 0.156 | 38.42 | 22.22 | 14.34
101 kPa, x1 = 0.2233 | 60.39 | 32.27 | 20.32
101 kPa, x1 = 0.3302 | 82.48 | 42.63 | 26.01
101 kPa, x1 = 0.5259 | 75.67 | 38.19 | 21.84
101 kPa, x1 = 0.7007 | 50.89 | 27.24 | 15.21
101 kPa, x1 = 0.7994 | 39.76 | 21.64 | 12.67
101 kPa, x1 = 0.9242 | 31.35 | 16.13 | 10.61

[K+].[K+].[O]=[Cr](=[O])([O-])[O][Cr](=[O])(=[O])[O-] + O
viscosity [mPa·s], [1], 101 kPa
Details | x1 = 0.001 | x1 = 0.003 | x1 = 0.0068 | x1 = 0.015
298.15 K | 0.89 | 0.9 | 0.91 | –
312.95 K | 0.66 | 0.67 | 0.68 | 0.73

c1c[nH]cn1 + O=C1CCCCCN1
[1], 101 kPa, x2 = 0.5
Details | viscosity [mPa·s]
303.2 K | 49.07
313.1 K | 25
323.1 K | 16.2

CC(O)CCO (stereo unspecified) + O=C1CCCN1
Details | viscosity [mPa·s]
[1], 308.15 K, 101 kPa, x2 = 0.7935 | 11.85

c1ccncc1 + OCC(O)CO
[1], 101 kPa
Details | viscosity [mPa·s]
298.15 K, x1 = 0.6001 | 17.25
298.15 K, x1 = 0.8001 | 3.155
303.15 K, x1 = 0.4 | 66.75
308.15 K, x1 = 0.1 | 275.5
313.15 K, x1 = 0.2001 | 116.5
313.15 K, x1 = 0.4 | 36.35

CCCCCCC(C)O (stereo unspecified) + c1ccccc1
viscosity [mPa·s], [1], 101 kPa
Details | 298.15 K | 303.15 K
x2 = 0.0555 | 5.871 | 4.689
x2 = 0.1239 | 5.076 | 4.101
x2 = 0.1912 | 4.353 | 3.577
x2 = 0.2386 | 3.886 | 3.224
x2 = 0.3153 | 3.181 | 2.703
x2 = 0.4353 | 2.241 | 2.018
x2 = 0.4865 | 1.923 | 1.764
x2 = 0.6072 | 1.318 | 1.264
x2 = 0.6941 | 1.008 | 0.986
x2 = 0.7432 | 0.876 | 0.876
x2 = 0.8011 | 0.761 | 0.754
x2 = 0.8599 | 0.693 | 0.667
x2 = 0.909 | 0.655 | 0.608
x2 = 0.9541 | 0.637 | 0.58

O=C(Cl)c1ccccc1 + c1ccccc1
[1], 303.15 K, 101 kPa
Details | viscosity [mPa·s]
x2 = 0.1255 | 1.176
x2 = 0.2441 | 1.108
x2 = 0.3564 | 1.04
x2 = 0.4627 | 0.9726
x2 = 0.5637 | 0.9048
x2 = 0.6596 | 0.8369
x2 = 0.7509 | 0.7688
x2 = 0.8379 | 0.7005
x2 = 0.9208 | 0.632

c1c[nH]cn1 + c1ccccc1
viscosity [mPa·s], [1], 101 kPa
Details | x1 = 0.003214 | x1 = 0.006433 | x1 = 0.01278 | x1 = 0.03561 | x1 = 0.03951
303.15 K | 0.57 | 0.578 | 0.595 | – | –
323.15 K | – | – | 0.457 | 0.505 | 0.513

c1ccncc1 + c1ccccc1
viscosity [mPa·s], [1], 101 kPa
Details | x1 = 0.3943 | x1 = 0.5905 | x1 = 0.7944 | x1 = 0.8965 | x2 = 0.2 | x2 = 0.4 | x2 = 0.6 | x2 = 0.8
293.15 K | – | – | – | – | 0.893 | 0.832 | 0.77 | 0.709
298.15 K | 0.7169 | 0.7726 | 0.8345 | 0.8601 | – | – | – | –
313.15 K | – | – | – | – | 0.678 | 0.632 | 0.585 | 0.538

c1cn[nH]c1 + c1ccccc1
viscosity [mPa·s], [1], 101 kPa
Details | x1 = 0.02244 | x1 = 0.04519 | x1 = 0.05005 | x1 = 0.1006
303.15 K | 0.577 | 0.597 | 0.594 | 0.627
323.15 K | 0.449 | 0.46 | 0.462 | –
